This experiment concerns MV4:11 human cancer cell lines. As to the kind of experiment: Anti-proliferative activity, CellTiter-Glo viability assay, 7 day protocol. In kind it is cell-based. The conditions noted are these: Homo sapiens, MV4:11 cells, 7 day incubation, read-out: GI50 on cellular proliferation of MV4:11 human cancer cell lines. On the procedure:
Viability assays are performed by dispensing […] into each well of an opaque 384-well plate and adding compounds at the indicated concentrations in a final volume of 32 μL and a final concentration of DMSO of 0.1% for all samples. After a set incubation period, 7 day protocol, the viability of cells in each well is assessed using the CellTiter-Glo assay (Promega), read on a GloMax 96 Microplane Luminometer (Promega). Serial dilutions of each cell type are included in all assays to generate standard curves and determine assay measurements are taken within the dynamic range of the instrument. GI50 values are calculated based on three biological replicates, each with three technical replicates. Data are expressed as mean plus/minus S.E.M.
In general terms: In ATP-based viability assays light output follows the ATP content of the culture.

Like-named read-outs stand apart in the source and are kept apart here. A value given as a limit tells only on which side of the number the result lay.

In the case of `Cc1cc(F)ccc1-c1cc(Cn2ccn(C)c2=N)cc(C(=O)N[C@@H](C)c2ccc(F)c(C(F)(F)F)c2)c1` [Example 31, (S)-4′-Fluoro-N-(1-(4-fluoro-3-(trifluoromethyl)phenyl)ethyl)-5-((2-imino-3-methyl-2,3-dihydro-1H-imidazol-1-yl)methyl)-2′-methyl-[1,1′-biphenyl]-3-carboxamide], the GI50 (MV4-11, 168 h) came to 0.3 µM.
With `Cc1cc(F)ccc1-c1cc(Cn2ccn(C)c2=N)cc(C(=O)N[C@H](C)c2ccc(F)c(C(F)(F)F)c2)c1` [Example 32, (R)-4′-Fluoro-N-(1-(4-fluoro-3-(trifluoromethyl)phenyl)ethyl)-5-((2-imino-3-methyl-2,3-dihydro-1H-imidazol-1-yl)methyl)-2′-methyl-[1,1′-biphenyl]-3-carboxamide], the GI50 (MV4-11, 168 h) is 1.5 µM.
Take `Cc1cc([C@H](NC(=O)c2cc(Cn3ccn(C)c3=N)cc(-c3ccc(F)cc3C)c2)C(F)(F)F)ccc1F` [Example 45, (S)-4′-fluoro-5-((2-imino-3-methyl-2,3-dihydro-1H-imidazol-1-yl)methyl)-2′-methyl-N-(2,2,2-trifluoro-1-(4-fluor-3-methylphenyl)ethyl)-[1,1′-biphenyl]-3-carboxamide]: the GI50 (MV4-11, 168 h) was determined as 1.8 µM.
Still for that read-out and setting: to `Cc1cc([C@@H](NC(=O)c2cc(Cn3ccn(C)c3=N)cc(-c3ccc(F)cc3C)c2)C2CC2)ccc1F` [Example 54, (S)—N-(Cyclopropyl(4-fluoro-3-methylphenyl)methyl)-4′-fluoro-5-((2-imino-3-methyl-2,3-dihydro-1H-imidazol-1-yl)methyl)-2′-methyl-[1,1′-biphenyl]-3-carboxamide] belongs less than 0.1 µM.
As for `Cc1cc(CNC(=O)c2cc(Cn3ccn(C)c3=N)cc(-c3c(C)cc(F)cc3C)c2)ccc1Cl` [Example 59], for the setting “168 h”, the GI50 is 0.46 µM.
In the case of `Cc1cc(CNC(=O)c2cc(Cn3ccn(C)c3=N)cc(-c3ncc(F)cc3C)c2)ccc1Cl` [Example 70, N-(4-Chloro-3-methylbenzyl)-3-(5-fluoro-3-methylpyridin-2-yl)-5-((2-imino-3-methyl-2,3-dihydro-1H-imidazol-1-yl)methyl)benzamide], the GI50 (MV4-11, 168 h) amounted to 2.4 µM.
On to `Cc1cc([C@@H](NC(=O)c2cc(Cn3ccn(C)c3=N)cc(-c3ncc(F)cc3C(F)(F)F)c2)C2CC2)ccc1F` [Example 72, (S)—N-(Cyclopropyl(4-fluoro-3-methylphenyl)methyl)-3-(5-fluoro-3-(trifluoromethyl)pyridin-2-yl)-5-((2-imino-3-methyl-2,3-dihydro-1H-imidazol-1-yl)methyl)benzamide], for which the GI50 (MV4-11, 168 h) turned out to be 0.18 µM.
On the same count and under the same terms, to `Cc1cc([C@@H](NC(=O)c2cc(Cn3ccn(C)c3=N)cc(-c3ccc(F)cc3OC(F)F)c2)C2CC2)ccc1F` [Example 73, (S)—N-(cyclopropyl(4-fluoro-3-methylphenyl)methyl)-2′-(difluoromethoxy)-4′-fluoro-5-((2-imino-3-methyl-2,3-dihydro-1-imidazol-1-yl)methyl)-[1,1′-biphenyl]-3-carboxamide] belongs 1.8 µM.
Still for that read-out and setting: the value for `COc1cc(OC)cc(C(NC(=O)c2cc(Cn3ccn(C)c3=N)cc(-c3ncc(F)cc3C(F)(F)F)c2)C2CC2)c1` (stereo not shown) [Example 74, N-(Cyclopropyl(3,5-dimethoxyphenyl)methyl)-3-(5-fluoro-3-(trifluoromethyl)pyridin-2-yl)-5-((2-imino-3-methyl-2,3-dihydro-1H-imidazol-1-yl)methyl)benzamide] was 4.5 µM.
Same read-out and setting: the value for `Cc1ccnc(C(NC(=O)c2cc(Cn3ccn(C)c3=N)cc(-c3ncc(F)cc3C(F)(F)F)c2)C2CC2)c1` (stereo not shown) [Example 75, N-(Cyclopropyl(4-methylpyridin-2-yl)methyl)-3-(5-fluoro-3-(trifluoromethyl)pyridin-2-yl)-5-((2-imino-3-methyl-2,3-dihydro-1H-imidazol-1-yl)methyl)benzamide] was 12 µM.
Take `Cc1cc(CNC(=O)c2cc(Cn3ccn(C)c3=N)cc(-c3cccnc3C(F)(F)F)c2)ccc1Cl` [Example 76, N-(4-Chloro-3-methylbenzyl)-3-((2-imin-3-methyl-2,3-dihydro-1H-imidazol-1-yl)methyl)-5-(2-(trifluoromethyl)pyridin-3-yl)benzamide]: the GI50 (MV4-11, 168 h) is 0.26 µM.
Same read-out and setting: the value for `Cc1ccnc(C(NC(=O)c2cc(Cn3ccn(C)c3=N)cc(-c3cccnc3C(F)(F)F)c2)C2CC2)c1` (stereo not shown) [Example 77, N-(Cyclopropyl(4-methylpyridin-2-yl)methyl)-3-((2-imino-3-methyl-2,3-dihydro-1H-imidazol-1-yl)methyl)-5-(2-(trifluoromethyl)pyridin-3-yl)benzamide] was 1.2 µM; that for `COc1ccnc([C@@H](NC(=O)c2cc(Cn3ccn(C)c3=N)cc(-c3ccc(F)cc3C)c2)C2CC2)c1` [Example 97] was 0.25 µM; that for `Cc1cc([C@@H](NC(=O)c2cc(Cn3ccn(C)c3=N)cc(-c3ccnn3C(C)C)c2)C2CC2)ccc1F` [Example 102, (S)—N-(Cyclopropyl(4-fluoro-3-methylphenyl)methyl)-3-((2-imino-3-methyl-2,3-dihydro-1H-imidazol-1-yl)methyl)-5-(1-isopropyl-1H-pyrazol-5-yl)benzamide] was 2.16 µM.
`Cc1cc([C@@H](NC(=O)c2cc(Cn3ccn(C)c3=N)cc(-c3ccc(F)cc3C(F)(F)F)c2F)C2CC2)ccc1F` [Example 109]: the GI50 (MV4-11, 168 h) was less than 0.1 µM.
On to `Cc1cc([C@@H](NC(=O)c2cc(Cn3ccn(C)c3=N)cc(OCC3CC3)c2)C2CC2)ccc1F` [Example 175], for which, where the note is “MV4-11, 168 h”, the GI50 is 0.32 µM.
Same read-out and setting: the value for `Cc1cc([C@H](C)NC(=O)c2cc(Cn3ccoc3=N)cc(-c3ccc(F)cc3C)c2)ccc1F` [Example 230, (S)-4′-Fluoro-N-(1-(4-fluoro-3-methylphenyl)ethyl)-5-((2-iminooxazol-3(2H)-yl)methyl)-2′-methyl-[1,1′-biphenyl]-3-carboxamide] was 0.64 µM.
Regarding `Cc1cc([C@H](NC(=O)c2cc(Cn3ccoc3=N)cc(-c3ccc(F)cc3C)c2)C(F)(F)F)ccc1F` [Example 231, (S)-4′-Fluoro-5-((2-iminooxazol-3(2H)-yl)methyl)-2′-methyl-N-(2,2,2-trifluoro-1-(4-fluoro-3-methylphenyl)ethyl)-[1,1′-biphenyl]-3-carboxamide], the GI50 (MV4-11, 168 h) amounted to 0.87 µM.
`Cc1cc([C@@H](NC(=O)c2cc(Cn3ccoc3=N)cc(-c3ccc(F)cc3C)c2)C2CC2)ccc1F` [Example 232, (S)—N-(Cyclopropyl(4-fluoro-3-methylphenyl)methyl)-4′-fluoro-5-((2-iminooxazol-3(2H)-yl)methyl)-2′-methyl-[1,1′-biphenyl]-3-carboxamide]: the GI50 (MV4-11, 168 h) came to 0.21 µM.
The same measure, in the same setting: to `Cc1cc(F)ccc1-c1cc(Cn2ccoc2=N)cc(C(=O)N[C@@H](C)c2ccc(F)c(C(F)(F)F)c2)c1` [Example 233, (S)-4′-Fluoro-N-(1-(4-fluoro-3-(trifluoromethyl)phenyl)ethyl)-5-((2-iminooxazol-3(2H)-yl)methyl)-2′-methyl-[1,1′-biphenyl]-3-carboxamide] belongs 1.1 µM.
The same measure, in the same setting: to `Cc1cc([C@H](C)NC(=O)c2cc(Cn3ccoc3=N)cc(-c3ccc(F)cc3C)c2)ccc1Cl` [Example 234, (S)—N-(1-(4-Chloro-3-methylphenyl)ethyl)-4′-fluoro-5-((2-iminooxazol-3(2H)-yl)methyl)-2′-methyl-[1,1′-biphenyl]-3-carboxamide] belongs 0.87 µM.
`Cc1ccnc(C(NC(=O)c2cc(Cn3ccoc3=N)cc(-c3ncc(F)cc3C)c2)C2CC2)c1` (stereo not shown) [Example 239, N-(Cyclopropyl(4-methylpyridin-2-yl)methyl)-3-(5-fluoro-3-methylpyridin-2-yl)-5-((2-iminooxazol-3(2H)-yl)methyl)benzamide]: the GI50 (MV4-11, 168 h) worked out at 5.3 µM.
For the compound `Cc1cc([C@@H](NC(=O)c2cc(Cn3ccoc3=N)cc(-c3ncc(F)cc3C(F)(F)F)c2)C2CC2)ccc1F` [Example 241, (S)—N-(Cyclopropyl(4-fluoro-3-methylphenyl)methyl)-3-(5-fluoro-3-(trifluoromethyl)pyridin-2-yl)-5-((2-iminooxazol-3(2H)-yl)methyl)benzamide], where the note is “MV4-11, 168 h”, the GI50 was determined as 12 µM.
For `Cc1cc([C@@H](NC(=O)c2cc(Cn3ccoc3=N)cc(-c3ccc(F)cc3OC(F)F)c2)C2CC2)ccc1F` [Example 242, (S)—N-(Cyclopropyl(4-fluoro-3-methylphenyl)methyl)-2′-(difluoromethoxy)-4′-fluoro-5-((2-iminooxazol-3(2 h)-yl)methyl)-[1,1′-biphenyl]-3-carboxamide], where the note is “MV4-11, 168 h”, the GI50 worked out at 0.12 µM.
`Cc1cc([C@@H](NC(=O)c2cc(Cn3ccoc3=N)cc(-c3cccnc3C(F)(F)F)c2)C2CC2)ccc1F` [Example 243, (S)—N-(Cyclopropyl(4-fluoro-3-methylphenyl)methyl)-3-((2-iminooxazol-3(2H)-yl)methyl)-5-(2-(trifluoromethyl)pyridin-3-yl)benzamide]: the GI50 (MV4-11, 168 h) was less than 0.1 µM.
Turning to `COc1cc(CNC(=O)c2cc(Cn3ccoc3=N)cc(-c3cccnc3C(F)(F)F)c2)cc(OC)c1` [Example 244, N-(3,5-Dimethoxybenzyl)-3-((2-iminooxazol-3(2H)-yl)methyl)-5-(2-(trifluoromethyl)pyridin-3-yl)benzamide], the GI50 (MV4-11, 168 h) is 0.3 µM.
Still for that read-out and setting: to `COc1cc(OC)cc(C(NC(=O)c2cc(Cn3ccoc3=N)cc(-c3cccnc3C(F)(F)F)c2)C2CC2)c1` (stereo not shown) [Example 245, N-(Cyclopropyl(3,5-dimethoxyphenyl)methyl)-3-((2-iminooxazol-3(2H)-yl)methyl)-5-(2-(trifluoromethyl)pyridin-3-yl)benzamide] belongs 0.18 µM.
On to `Cc1cc([C@@H](NC(=O)c2cc(CN3CCOC3=N)cc(-c3cccnc3C(F)(F)F)c2)C2CC2)ccc1F` [Example 253, (S)-(Cyclopropyl(4-fluoro-3-methylphenyl)methyl)-3-((2-iminooxazolidin-3-yl)methyl)-5-(2-(trifluoromethyl)pyridin-3-yl)benzamide], for which the GI50 (MV4-11, 168 h) was less than 0.1 µM.

These data come from patent publication US10844044B2 (Vanderbilt University, priority 2018, dated 2020).
